Data taken from ChEMBL document CHEMBL1201862, “PubChem BioAssay data set” (2004).
Where “and” joins values, the source holds several entries; their conditions need not be identical. Equal values may be shown once.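 Following 48 hours of exposure in 96-well plates, responses at five concentrations were used to interpolate endpoints linearly. Abbreviation: GI50, concentration required for 50% inhibition of growth.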 Calls of active or inactive are those of the source. Cut-off read from the data, not from the text of the source: active = GI50 up to about 1.1 µM and inactive = higher.

Experiments:
Assay in all cases: inhibition of tumour cell growth, NCI panel, 48 h
HCT-116 = tested on: HCT-116
Hs-578T = tested on: Hs-578T
BT-549 = tested on: BT-549
OVCAR-4 = tested on: OVCAR-4
NCI-H23 = tested on: NCI-H23
U-251 = tested on: U-251
MDA-MB-435 = tested on: MDA-MB-435
SW-620 = tested on: SW-620
OVCAR-5 = tested on: OVCAR-5
T47D = tested on: T47D
M14 = tested on: M14
MCF7 = tested on: MCF7
OVCAR-3 = tested on: OVCAR-3
UACC-62 = tested on: UACC-62
NCI-H226 = tested on: NCI-H226
SNB-19 = tested on: SNB-19
NCI-H522 = tested on: NCI-H522
SK-MEL-2 = tested on: SK-MEL-2
HOP-92 = tested on: HOP-92
SF-539 = tested on: SF-539

| SMILES | GI50 (HCT-116) | GI50 (Hs-578T) | GI50 (BT-549) | GI50 (OVCAR-4) | GI50 (NCI-H23) | GI50 (U-251) | GI50 (MDA-MB-435) | GI50 (SW-620) | GI50 (OVCAR-5) | GI50 (T47D) | GI50 (M14) | GI50 (MCF7) | GI50 (OVCAR-3) | GI50 (UACC-62) | GI50 (NCI-H226) | GI50 (SNB-19) | GI50 (NCI-H522) | GI50 (SK-MEL-2) | GI50 (HOP-92) | GI50 (SF-539) |
| --- | --- | --- | --- | --- | --- | --- | --- | --- | --- | --- | --- | --- | --- | --- | --- | --- | --- | --- | --- | --- |
| Cc1nc(Nc2ccc(F)cc2)c2sc(=S)n(-c3ccc(F)cc3)c2n1 | 3.74 µM (inactive) | 14.5 µM (inactive) | 13.3 µM (inactive) | 15.5 µM (inactive) | 4.24 µM (inactive) | 14.7 µM (inactive) | 10.8 µM (inactive) | 9.77 µM (inactive) | 17.9 µM (inactive) | 5.31 µM (inactive) | 2.94 µM (inactive) | 5.5 µM (inactive) | 17.1 µM (inactive) | 16.1 µM (inactive) | 16.1 µM (inactive) | 14.7 µM (inactive) | 16.1 µM (inactive) | 15.3 µM (inactive) | – | – |
| O=C(Cc1ccccc1)NN1C(=O)/C(=C\c2ccccc2O)S/C1=N\c1ccccc1 | > 100 µM (inactive) | > 100 µM (inactive) | > 100 µM (inactive) | > 100 µM (inactive) | > 100 µM (inactive) | > 100 µM (inactive) | > 100 µM (inactive) | > 100 µM (inactive) | > 100 µM (inactive) | > 100 µM (inactive) | > 100 µM (inactive) | > 100 µM (inactive) | > 100 µM (inactive) | > 100 µM (inactive) | > 100 µM (inactive) | > 100 µM (inactive) | – | > 100 µM (inactive) | 39.3 µM (inactive) | > 100 µM (inactive) |
| O=C(O/C=C\OC1CCCC1(c1ccccc1)c1ccccc1)c1ccccc1 (configuration not stated) | 2.51 µM (inactive) | 7.05 µM (inactive) | 2.12 µM (inactive) | 3.15 µM (inactive) | 2.19 µM (inactive) | 3.66 µM (inactive) | – | 2.7 µM (inactive) | 16.8 µM (inactive) | 1.61 µM (inactive) | 2.79 µM (inactive) | 2.6 µM (inactive) | 9.2 µM (inactive) | 6.28 µM (inactive) | 19.8 µM (inactive) | 14.8 µM (inactive) | 19 µM (inactive) | 3.31 µM (inactive) | 2.07 µM (inactive) | 3.66 µM (inactive) |
| C/C(=N\NC(=S)N1CC2CCC(CC2)C1)c1cccc(C)n1 | < 0.0445 µM (active) | 4.11 µM (inactive) | 1.32 µM (inactive) | 0.352 µM (active) | 2.49 µM (inactive) | 0.551 µM (active) | 1.77 µM (inactive) | 0.148 µM (active) | 1.46 µM (inactive) | 0.01 µM (active) | 0.269 µM (active) | – | 0.01 µM (active) | 0.621 µM (active) | 0.841 µM (active) | 1.75 µM (inactive) | 0.00432 µM (active) | 4.7 µM (inactive) | 2.2 µM (inactive) | 0.378 µM (active) |
| C=CCOc1ccc(N)c([N+](=O)[O-])c1 | > 100 µM (inactive) | > 100 µM (inactive) | > 100 µM (inactive) | – | > 100 µM (inactive) | > 100 µM (inactive) | > 100 µM (inactive) | > 100 µM (inactive) | > 100 µM (inactive) | > 100 µM (inactive) | > 100 µM (inactive) | > 100 µM (inactive) | – | > 100 µM (inactive) | > 100 µM (inactive) | > 100 µM (inactive) | 63.4 µM (inactive) | > 100 µM (inactive) | – | > 100 µM (inactive) |
| Cc1ccc(S(=O)(=O)N/N=C2\C(=O)Nc3cc(O)c(C(=O)O)cc32)cc1 | > 100 µM (inactive) | > 100 µM (inactive) | > 100 µM (inactive) | > 100 µM (inactive) | > 100 µM (inactive) | > 100 µM (inactive) | > 100 µM (inactive) | > 100 µM (inactive) | > 100 µM (inactive) | > 100 µM (inactive) | > 100 µM (inactive) | > 100 µM (inactive) | > 100 µM (inactive) | > 100 µM (inactive) | > 100 µM (inactive) | > 100 µM (inactive) | > 100 µM (inactive) | > 100 µM (inactive) | – | – |
| COc1cc(C2c3cc4c(cc3OC(Nc3ccccc3)C2C)OCO4)cc(OC)c1OC (configuration not stated) | 0.42 µM (active) | 0.479 µM (active) | 4.36 µM (inactive) | 24.7 µM (inactive) | 0.991 µM (active) | 0.392 µM (active) | 0.139 µM (active) | 0.473 µM (active) | – | 42.3 µM (inactive) | 0.381 µM (active) | 0.536 µM (active) | 0.323 µM (active) | 0.621 µM (active) | 1.13 µM (inactive) | 1.19 µM (inactive) | 0.337 µM (active) | 5.65 µM (inactive) | – | 0.262 µM (active) |
| CC(NNC(=O)c1ccncc1)c1ccccc1 (configuration not stated) | > 100 µM (inactive) | > 100 µM (inactive) | > 100 µM (inactive) | > 100 µM (inactive) | > 100 µM (inactive) | > 100 µM (inactive) | > 100 µM (inactive) | > 100 µM (inactive) | > 100 µM (inactive) | > 100 µM (inactive) | > 100 µM (inactive) | > 100 µM (inactive) | > 100 µM (inactive) | > 100 µM (inactive) | > 100 µM (inactive) | > 100 µM (inactive) | – | > 100 µM (inactive) | > 100 µM (inactive) | > 100 µM (inactive) |
| CCOC(=O)Cc1[nH]c(C(=O)c2ccccc2)cc1C(=O)c1ccccc1 | 17.5 µM (inactive) | > 100 µM (inactive) | 20.6 µM (inactive) | 18.3 µM (inactive) | 17.4 µM (inactive) | > 100 µM (inactive) | 13.8 µM (inactive) | > 100 µM (inactive) | > 10 µM (inactive) | 17.7 µM (inactive) | 88.1 µM (inactive) | > 10 µM (inactive) | 46.3 µM (inactive) | > 100 µM (inactive) | 23.3 µM (inactive) | > 100 µM (inactive) | 52.5 µM (inactive) | 39 µM (inactive) | – | – |
| COc1cccc(/C=N/n2c(Cc3ccccc3)n[nH]c2=O)c1 | > 100 µM (inactive) | 26.7 µM (inactive) | > 100 µM (inactive) | > 100 µM (inactive) | > 100 µM (inactive) | > 100 µM (inactive) | > 100 µM (inactive) | > 100 µM (inactive) | > 100 µM (inactive) | > 73.6 µM (inactive) | > 100 µM (inactive) | > 100 µM (inactive) | > 100 µM (inactive) | > 100 µM (inactive) | – | > 100 µM (inactive) | 16.8 µM (inactive) | > 100 µM (inactive) | – | > 100 µM (inactive) |
| CCCCCCC(=O)O[C@H]1CC[C@H]2[C@@H]3CCC4C/C(=N/NC(=O)c5cccc6c(=O)c7ccccc7[nH]c56)C=C(C)[C@]4(C)[C@H]3CC[C@]12C (some centres not stated) | > 25 µM (inactive) | > 25 µM (inactive) | > 25 µM (inactive) | > 25 µM (inactive) | > 25 µM (inactive) | > 25 µM (inactive) | > 25 µM (inactive) | > 25 µM (inactive) | > 25 µM (inactive) | > 25 µM (inactive) | > 25 µM (inactive) | > 25 µM (inactive) | > 25 µM (inactive) | > 25 µM (inactive) | > 25 µM (inactive) | > 25 µM (inactive) | – | > 25 µM (inactive) | > 25 µM (inactive) | > 25 µM (inactive) |
| COc1ccccc1/N=N/c1c(O)ccc2ccccc12 | 33.4 µM (inactive) and 29 µM (inactive) | 28.7 µM (inactive) and 26.6 µM (inactive) | 84.3 µM (inactive) | – | 21.7 µM (inactive) and 31.4 µM (inactive) | 14.2 µM (inactive) and 18.9 µM (inactive) | 74 µM (inactive) and 78.2 µM (inactive) | 56.8 µM (inactive) and 66.7 µM (inactive) | 40.1 µM (inactive) and 38.9 µM (inactive) | 23.3 µM (inactive) and 38.2 µM (inactive) | – | 52.8 µM (inactive) | 31.4 µM (inactive) and 32.1 µM (inactive) | – | – | 27.6 µM (inactive) and 26.9 µM (inactive) | – | > 63.4 µM (inactive) and 65 µM (inactive) | 22.8 µM (inactive) and 14.6 µM (inactive) | – |
| C=C1C(=O)C23C(O)C1CC[C@H]2C12CCCC(C)(COC(C)=O)[C@H]1[C@H](O)[C@]3(O)OC2 (some centres not stated) | 1.06 µM (active) | 2.77 µM (inactive) | 1.48 µM (inactive) | 2.15 µM (inactive) | 1.87 µM (inactive) | 2.21 µM (inactive) | – | 0.519 µM (active) | 2.36 µM (inactive) | 1.3 µM (inactive) | 1.1 µM (active) | 1.78 µM (inactive) | 1.61 µM (inactive) | 1.58 µM (inactive) | 2.44 µM (inactive) | 3.44 µM (inactive) | 0.285 µM (active) | 1.85 µM (inactive) | 1.39 µM (inactive) | 1.68 µM (inactive) |
| Cc1c2c(n3c(nc4ccccc43)c1C#N)SCC2 | > 10 µM (inactive) | > 10 µM (inactive) | > 10 µM (inactive) | > 10 µM (inactive) | > 10 µM (inactive) | > 10 µM (inactive) | > 10 µM (inactive) | > 10 µM (inactive) | > 10 µM (inactive) | > 10 µM (inactive) | > 10 µM (inactive) | > 10 µM (inactive) | > 10 µM (inactive) | > 10 µM (inactive) | > 10 µM (inactive) | > 10 µM (inactive) | – | > 10 µM (inactive) | > 10 µM (inactive) | > 10 µM (inactive) |
| COc1ccc2oc(=N)c(C(=O)Nc3ccccn3)cc2c1 | > 100 µM (inactive) | > 100 µM (inactive) | > 100 µM (inactive) | > 100 µM (inactive) | > 100 µM (inactive) | > 100 µM (inactive) | > 100 µM (inactive) | > 100 µM (inactive) | > 100 µM (inactive) | 37 µM (inactive) | > 100 µM (inactive) | 35.1 µM (inactive) | > 100 µM (inactive) | 71.4 µM (inactive) | 60.3 µM (inactive) | 87.1 µM (inactive) | – | 23.2 µM (inactive) | > 100 µM (inactive) | – |
